In patent US20250115628A1, “FLUORINATED FLUOROPHORES” (HOWARD HUGHES MEDICAL INSTITUTE, priority 2023, published 2025):
Where “and” joins values, the source holds several entries; their conditions need not be identical. Equal values may be shown once.

Key:
Assay type in all cases: physicochemical
[1] = Determination of KL-Z (lactone-zwitterion equilibrium constant); parameters: key: KL-Z = (εdw/εmax)/(1−εdw/εmax); εdw measured in 1:1 dioxane/water; conditions: 1:1 dioxane:H2O
Experimental: KL-Z was calculated using the following equation:^16, 18 KL-Z=(εdw/εmax)/(1−εdw/εmax). εdw is the extinction coefficient of the dyes in a 1:1 (v/v) dioxane/water solvent mixture; this dioxane/water mixture was chosen to give the maximum spread of KL-Z values across all classes of rhodamines.^18 εmax refers to the maximal extinction coefficients measured in different solvent mixtures empirically determined depending on dye type: 0.1% v/v trifluoroacetic acid in ethanol for 18, 20, 29, 34, 36, 70-72, 81-83, 93-95, 99-102, and 104; 0.1% v/v trifluoroacetic acid in 2,2,2^−trifluoroethanol for all other rhodamine variants. A accurate determination of low KL-Z values is complicated by the relatively poor sensitivity of absorbance measurements.

[2] = General UV-vis and fluorescence spectroscopy; conditions: 10 mM HEPES, pH 7.3
Experimental: Spectroscopy was performed using 1^−cm path length, 3.5^−mL quartz cuvettes or 1^−cm path length, 1.4^−mL semi-micro quartz cuvettes from Starna Cells. All measurements were taken at ambient temperature (22±2° C.). Absorption spectra were recorded on a Cary Model 100 spectrometer (Agilent), and fluorescence spectra were recorded on a Cary Eclipse fluorometer (Varian). The spectra, maximum absorption wavelength (labs), extinction coefficient at λabs (8), and maximum emission wavelength (em) were measured in 10 mM HEPES, pH 7.3 buffer (rhodamines and Malachite Green derivative 49) or 0.1 M NaOH (fluoresceins); the reported values for e are averages (n=3). Normalized spectra are shown for clarity.

[3] = Quantum yield determination; conditions: 10 mM HEPES, pH 7.3
Experimental: All reported absolute fluorescence quantum yield values (Φf) were measured using a Quantaurus-QY spectrometer (model C11374, Hamamatsu). This instrument uses an integrating sphere to determine photons absorbed and emitted by a sample. Measurements were carried out using dilute samples (A<0.1), and self-absorption corrections were performed using the instrument software.^81

Compound: CC1CC(C)(C)Nc2cc3c(cc21)C(c1c(F)c(F)c(F)c(F)c1C(=O)O)=c1cc2c(cc1O3)=NC(C)(C)CC2C (mixture of isomers) [compound 18, JF563]
- KL-Z ([1]; quinolinyl rhodamines): 15.3
- ε ([2]; quinolinyl rhodamines): 125,000 M^−1cm^−1
- λabs ([2]; quinolinyl rhodamines): 563 nm
- λem ([2]; quinolinyl rhodamines): 581 nm
- Φf ([3]; quinolinyl rhodamines): 0.73

Compound: [2H]C1([2H])N(c2ccc3c(-c4c(F)c(F)c(F)c(F)c4C(=O)[O-])c4ccc(=[N+]5C([2H])([2H])C([2H])([2H])C([2H])([2H])C5([2H])[2H])cc-4oc3c2)C([2H])([2H])C([2H])([2H])C1([2H])[2H] [compound 8, JFX576]
- KL-Z ([1]; rhodamine derivatives): 7.50
- ε ([2]; rhodamine derivatives): 124,000 M^−1cm^−1
- λabs ([2]; rhodamine derivatives): 576 nm
- λem ([2]; rhodamine derivatives): 597 nm
- Φf ([3]; rhodamine derivatives): 0.71

Compound: CC1=CC(C)(C)N(C)c2cc3c(cc21)C(c1c(F)c(F)c(F)c(F)c1C(=O)[O-])=c1cc2c(cc1O3)=[N+](C)C(C)(C)C=C2C [compound 11, 2,3,4,5^−Tetrafluoro-6^−(1,2,2,4,8,10,10,11^−octamethyl-1,2,10,11-tetrahydropyrano[3,2^−g:5,6^−g]diquinolin-13^−ium-6^−yl)benzoate]
- KL-Z ([1]; quinolinyl rhodamines): 7.88
- ε ([2]; quinolinyl rhodamines): 121,000 M^−1cm^−1
- λabs ([2]; quinolinyl rhodamines): 610 nm
- λem ([2]; quinolinyl rhodamines): 630 nm
- Φf ([3]; quinolinyl rhodamines): 0.68

Compound: O=C([O-])c1c(F)c(F)c(F)c(F)c1-c1c2cc3c(cc2[o+]c2cc4c(cc12)CCCN4)NCCC3 [compound 14, 4,5,6,7^−Tetrafluoro-Q-rhodamine]
- KL-Z ([1]; rhodamine derivatives): 8.57
- ε ([2]; rhodamine derivatives): 118,000 M^−1cm^−1
- λabs ([2]; rhodamine derivatives): 558 nm
- λem ([2]; rhodamine derivatives): 576 nm
- Φf ([3]; rhodamine derivatives): 0.80

Compound: O=C([O-])c1c(F)c(F)c(F)c(F)c1C1=c2cc3c4c(c2Oc2c1cc1c5c2CCCN5CCC1)CCC[N+]=4CCC3 [compound 16, 4,5,6,7^−Tetrafluoro-rhodamine 101]
- KL-Z ([1]; rhodamine derivatives): 13.4
- ε ([2]; rhodamine derivatives): 110,000 M^−1cm^−1
- λabs ([2]; rhodamine derivatives): 597 nm
- λem ([2]; rhodamine derivatives): 616 nm
- Φf ([3]; rhodamine derivatives): 0.67

Compound: CC1=CC(C)(C)Nc2cc3[o+]c4cc5c(cc4c(-c4c(F)c(F)c(F)c(F)c4C(=O)[O-])c3cc21)C(C)=CC(C)(C)N5 [compound 20, 2,3,4,5^−Tetrafluoro-6^−(2,2,4,8,10,10^−hexamethyl-1,2,10,11-tetrahydropyrano[3,2^−g:5,6^−g]diquinolin-13^−ium-6^−yl)benzoate]
- KL-Z ([1]; quinolinyl rhodamines): 7.65
- ε ([2]; quinolinyl rhodamines): 117,000 M^−1cm^−1
- λabs ([2]; quinolinyl rhodamines): 596 nm
- λem ([2]; quinolinyl rhodamines): 614 nm
- Φf ([3]; quinolinyl rhodamines): 0.64

Compound: [2H]C1([2H])N(c2ccc3c(c2)[Si](C)(C)C2=CC(=[N+]4C([2H])([2H])C([2H])([2H])C([2H])([2H])C4([2H])[2H])C=CC2=C3c2c(F)c(F)c(F)c(F)c2C(=O)[O-])C([2H])([2H])C([2H])([2H])C1([2H])[2H] [compound 25, JFX673]
- KL-Z ([1]; rhodamine derivatives): 1.56
- ε ([2]; rhodamine derivatives): 156,000 M^−1cm^−1
- λabs ([2]; rhodamine derivatives): 673 nm
- λem ([2]; rhodamine derivatives): 690 nm
- Φf ([3]; rhodamine derivatives): 0.42

Compound: CCC1=CC2=C(c3c(F)c(F)c(F)c(F)c3C(=O)O)c3cc4c(cc3[Si](C)(C)C2=CC1=NC)NCCC4 [compound 29, 4,5,6,7^−Tetrafluoro-Si-Q-rhodamine]
- KL-Z ([1]; rhodamine derivatives): 2.39
- ε ([2]; rhodamine derivatives): 124,000 M^−1cm^−1
- λabs ([2]; rhodamine derivatives): 659 nm and 689 nm
- λem ([2]; rhodamine derivatives): 675 nm
- Φf ([3]; rhodamine derivatives): 0.25

Compound: CCc1cc2c(c3c1=[N+](C)CCC3)[Si](C)(C)c1c(cc3c4c1CCCN4CCC3)C=2c1c(F)c(F)c(F)c(F)c1C(=O)[O-] [compound 31, JF698]
- ε ([2]; rhodamine derivatives): 147,000 M^−1cm^−1
- λabs ([2]; rhodamine derivatives): 698 nm
- λem ([2]; rhodamine derivatives): 712 nm
- Φf ([3]; rhodamine derivatives): 0.28

Compound: CC1CC(C)(C)Nc2cc3c(cc21)C(c1c(F)c(F)c(F)c(F)c1C(=O)O)=c1cc2c(cc1[Si]3(C)C)=NC(C)(C)CC2C (centres unmarked) [compound 34, 2,3,4,5^−Tetrafluoro-6^−(2,2,4,8,10,10,13,13^−octamethyl-2,3,4,8,9,10,11,13^−octahydrosilino[3,2^−g:5,6^−g]diquin-olin-6^−ylium-6(1H)-yl)benzoate]
- KL-Z ([1]; quinolinyl rhodamines): 1.90
- ε ([2]; quinolinyl rhodamines): 129,000 M^−1cm^−1
- λabs ([2]; quinolinyl rhodamines): 660 nm
- λem ([2]; quinolinyl rhodamines): 676 nm
- Φf ([3]; quinolinyl rhodamines): 0.28

Compound: CC1=CC(C)(C)Nc2cc3c(cc21)C(c1c(F)c(F)c(F)c(F)c1C(=O)O)=c1cc2c(cc1[Si]3(C)C)=NC(C)(C)C=C2C [compound 36, 2,3,4,5^−Tetrafluoro-6^−(2,2,4,8,10,10,13,13^−octamethyl-2,10,11,13-tetrahydrosilino[3,2^−g:5,6^−g]diquinolin-6^−ylium-6(1H)-yl)benzoate]
- KL-Z ([1]; quinolinyl rhodamines): 1.09
- ε ([2]; quinolinyl rhodamines): 85,900 M^−1cm^−1
- λabs ([2]; quinolinyl rhodamines): 713 nm
- λem ([2]; quinolinyl rhodamines): 742 nm
